# Measured values from patent publication US20190010524A1, “BIOLOGICAL METHODS FOR PREPARING A FATTY DICARBOXYLIC ACID” (Verdezyne, Inc., priority 2012, published 2019).
# Columns and labels:
# strain sAA2178 = test: Bioreactor conversion of ethyl decanoate to sebacic acid (Example 73); assay type: cell-based, Candida
# Description: (§1) By conversion tests for ethyl decanoate were performed in 0.5 L Infors HT Multifors bioreactors (Infors AG, Switzerland) with working volumes of 0.4 L each. […] Fermentation medium. […] Bioreactors were equipped with two rushton impellers rotating at 1000 rpm. Bioreactors were inoculated to an OD of approximately 0.2 and growth continued for approximately 12-14 hours, at which point the conversion phase was initiated by evenly space boluses of ethyl decanoate. Culture pH was kept constant at 5.8 during the growth phase by automatic addition of 6 N KOH and temperature and airflow were controlled at 30° C. and 1 vvm respectively.
# (§2) At induction, the pH was changed to 6.2 and maintained by addition of 6N KOH. Bioreactors were induced with an initial 4.0 ml bolus of decane for 6 hours with an airflow rate of 0.25 vvm to minimize evaporation.
# (§3) Following this initial 6 hour induction, airflow was increased to 1 vvm and 58 μl of ethyl decanoate was added every 30 minutes for the next 6 hours. Ethyl decanoate boluses were then increased to 116 μl at a frequency of once per hour for the next 36 hours. In addition, a co-feed of dextrose was fed at a rate of 1.25 g/L-h. Final samples were taken 12 hours after the final ethyl decanoate bolus. Yield calculations were made for all cultures taking only added ethyl decanoate into account due to the volatility of decane and the lack of decanedioic acid formation following the initial induction period.
# strain sAA1082 = test: as above; assay type: cell-based, Candida
# Description: as §1, §2, §3
# [1] = test system: Candida strain ATCC 20962; test: as above; assay type: cell-based; conditions: decane induction
# Description: as §1, §2
# as §3, with “Yield calculations were made for all cultures taking only added ethyl decanoate into account due to the volatility of decane and the lack of decanedioic acid formation following the initial induction period.” left out
# Candida [2] = conditions: stated as background; cited from earlier work
# [3] = test system: Candida tropicalis (ATCC20962); test: Fermentation procedure for conversion of decane to sebacic acid (Example 3); assay type: cell-based; conditions: GC at 44 hours after initiating the conversion phase, FIG. 16
# Description: Filter sterilized modified SP92-glycerol fermentation medium (6.7 g/L yeast nitrogen base, 3.0 g/L yeast extract, 3.0 g/L (NH4)2SO4, 1.0 g/L K2HPO4, 1.0 g/L KH2PO4, 20 g/L glycerol) is transferred to a sterile fermentation vessel. Growth of Candida tropicalis (ATCC20962) is inoculated to an initial OD600nm of about 1.0 with a 5% inoculum and growth carried out under the following conditions: 30° C. with shaking at about 1000 rpm, 1 volume per volume per minute aeration (vvm), pH 5.8 and initial volume of 0.3 L. Growth proceeds for approximately 8 hours and the conversion phase is initiated by the addition of decane to 2 g/L. Continuous feeds for decane (1 g/L-h) and glucose (1.5 g/L-h) are initiated at the same time as the addition of the decane bolus. Fermentation conditions are maintained at 30° C., 1000 rpm, 1 vvm, and pH 5.8 for 44 hours.
# Samples were collected for GC analysis at 44 hours after initiating the conversion phase. […] Significant evaporative losses from the decane feed bottles prevented an accurate determination of product yield.
# Candida [4] = test: Toxicity of feedstock or by-product to the yeast (viable cell counts); assay type: cell-based
# Source text: Methyl esters of fatty acids can be converted to the corresponding diacid by beta-oxidation-blocked strains of Candida since Candida produces an esterase that demethylates the fatty acid ester during the omega-oxidation process, allowing conversion of methyl decanoate into the non-toxic diacid, sebacic acid. Unfortunately, having an excess of methyl decanoate in the fermentation broth prior to induction of the enzymes involved in omega-oxidation process results in sufficient demethylation of methyl decanoate to produce toxic levels of decanoic acid, resulting in rapid cell death and a failed fermentation. The standard fermentation procedure would utilize the feedstock (methyl decanoate) as inducer.
# Growth was initiated with an inoculum of pre-culture to an initial OD600nm=1.0 and growth conditions of 35° C., 1000 rpm, 1 vvm, pH 5.8. Growth continued for approximately 10-12 h at which point the conversion phase was induced by the addition of either: 1) a bolus of 10 g/L of decane (Sigma-Aldrich #457116) for 6 h after which a continuous feed of methyl decanoate (TCI America #D0023) at 0.25 g/L-h was initiated or 2) no addition of decane. Induction was performed by initiating a continuous feed of methyl decanoate at 0.25 g/L-h. Because of the volatility of decane, the aeration rate was reduced to 0.3 vvm during the 6-h induction phase with decane as inducer. […]
smiles,measurement,setting,value
CCCCCCCCCC(=O)OCC [Ethyl decanoate],% improvement over ATTC 20962 sAA2178,strain sAA2178,50.7%
same,Feedstock Yield (g sebacic acid/g feedstock) sAA2178,"strain sAA2178; bioreactor, decane induction",1.032 g sebacic acid/g feedstock
same,% improvement over ATTC 20962 sAA1082,strain sAA1082,58.9%
same,Feedstock Yield (g sebacic acid/g feedstock) sAA1082,"strain sAA1082; bioreactor, decane induction",1.088 g sebacic acid/g feedstock
same,Feedstock Yield (g sebacic acid/g feedstock) ATCC 20962,[1],0.685 g sebacic acid/g feedstock
CCCCCCCCCCCC(=O)O [Lauric acid],toxicity to Candida,Candida [2],not as toxic to Candida as is decanoic acid
CCCCCCCCCC [decane],conversion of decane,[3],"converted exclusively to the C10 dicarboxylic acid, sebacic acid"
CCCCCCCCCC(=O)O [decanoic acid],toxicity to Candida,Candida [2],high degree of toxicity
same,toxicity to Candida (viable cell count data),Candida [4],demonstrates the toxicity
CCCCCCCCCC(=O)OC [methyl decanoate],toxicity to Candida,Candida [2],very low toxicity
